In patent publication US20260295053A1, “COMPOUNDS FOR DEGRADATION AND INHIBITION OF KRAS (G12D) PROTEIN” (Shenzhen Ionova Life Science Co., Ltd., priority 2023, published 2026):

Columns and labels:
AsPC-1 cells = assay: AsPC-1 cell proliferation assay (CellTiter Glo); assay type: cell-based; settings: 6 days
How it was run: (§1)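 AsPC-1 cells were seeded at 22,000/well for degradation and 3,500/well for proliferation. Compounds in 1:3 dilutions ([…] to 1.5 nM final) ran 24 h for degradation, read by in-cell immunofluorescence of KRAS G12D normalised to β-actin, and 6 days for proliferation (CellTiter Glo luminescence). DC50/IC50 came from dose-response fits.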

KRAS (G12D) = biological target: T1, KRAS (G12D) (Homo sapiens, UniProt P01116, G12D); assay: KRAS (G12D) cellular degradation assay in AsPC-1 cells; assay type: cell-based; settings: 24 hours, antibody fluorescence (Odyssey CLX), DC50 half-maximal degradation concentration
T1 construct: in-cell western with KRAS G12D antibody after 24 h
How it was run: as §1

T1 sequence (P01116 1-188 isoform P01116-2 G12D): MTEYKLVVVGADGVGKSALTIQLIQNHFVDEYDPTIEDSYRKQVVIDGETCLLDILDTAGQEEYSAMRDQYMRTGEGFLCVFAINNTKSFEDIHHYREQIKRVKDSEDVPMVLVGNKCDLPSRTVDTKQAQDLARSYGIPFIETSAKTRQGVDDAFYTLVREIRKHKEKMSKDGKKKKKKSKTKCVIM

Row | SMILES | IC50 (AsPC-1 cells; Homo sapiens, ASPC1, 144 h) | DC50 (KRAS (G12D)) | IC50 (AsPC-1 cells)
1 | Cc1ncsc1-c1ccc([C@@H](NC(=O)[C@@H]2C[C@@H](O)CN2C(=O)[C@H](C(C)C)n2cc(-c3ccc(COc4c(-c5c(C)c(F)cc6[nH]ncc56)c(C5CC5)cc5c(N6C[C@@H]7C[C@H]6CN7)nc(OC6CCOCC6)nc45)cc3)nn2)[C@H](C)O)cc1 [Example 72, (2S,4R)-1-((2S)-2-(4-(4-(((4-((1S,4S)-2,5-diazabicyclo[2.2.1]heptan-2-yl)-6-cyclopropyl-7-(6-fluoro-5-methyl-1H-indazol-4-yl)-2-((tetrahydro-2H-pyran-4-yl)oxy)quinazolin-8-yl)oxy)methyl)phenyl)-1H-1,2,3-triazol-1-yl)-3-methylbutanoyl)-4-hydroxy-N-((1R,2S)-2-hydroxy-1-(4-(4-methylthiazol-5-yl)phenyl)propyl)pyrrolidine-2-carboxamide] | < 10 nM | < 10 nM | –
2 | CCn1nccc1-c1ccc([C@@H](NC(=O)[C@@H]2C[C@@H](O)CN2C(=O)[C@H](C(C)C)n2cc(-c3ccc(COc4c(-c5c(C)c(F)cc6[nH]ncc56)c(C5CC5)cc5c(N6C[C@@H]7C[C@H]6CN7)nc(OC6CCC7(CC6)COC7)nc45)cc3)nn2)[C@H](C)O)cc1 [Example 87, (2S,4R)-1-((2S)-2-(4-(4-(((2-((2-oxaspiro[3.5]nonan-7-yl)oxy)-4-((1S,4S)-2,5-diazabicyclo[2.2.1]heptan-2-yl)-6-cyclopropyl-7-(6-fluoro-5-methyl-1H-indazol-4-yl)quinazolin-8-yl)oxy)methyl)phenyl)-1H-1,2,3-triazol-1-yl)-3-methylbutanoyl)-N-((1R,2S)-1-(4-(1-ethyl-1H-pyrazol-5-yl)phenyl)-2-hydroxypropyl)-4-hydroxypyrrolidine-2-carboxamide] | < 10 nM | < 10 nM | –
3 | Cc1ncsc1-c1ccc([C@H](CO)NC(=O)[C@@H]2C[C@@H](O)CN2C(=O)[C@H](C(C)C)n2cc(-c3ccc(COc4c(-c5c(C)c(F)cc6[nH]ncc56)c(C5CC5)cc5c(N6C[C@@H]7C[C@H]6CN7)nc(OC6CC7COCC7C6)nc45)cc3)nn2)cc1 (stereo partly drawn) [Example 93, (2S,4R)-1-((2S)-2-(4-(4-(((4-((1S,4S)-2,5-diazabicyclo[2.2.1]heptan-2-yl)-6-cyclopropyl-7-(6-fluoro-5-methyl-1H-indazol-4-yl)-2-((hexahydro-1H-cyclopenta[c]furan-5-yl)oxy)quinazolin-8-yl)oxy)methyl)phenyl)-1H-1,2,3-triazol-1-yl)-3-methylbutanoyl)-4-hydroxy-N—((R)-2-hydroxy-1-(4-(4-methylthiazol-5-yl)phenyl)ethyl)pyrrolidine-2-carboxamide] | < 10 nM | < 10 nM | –
4 | CCn1nccc1-c1ccc([C@H](CO)NC(=O)[C@@H]2C[C@@H](O)CN2C(=O)[C@H](C(C)C)n2cc(-c3ccc(COc4c(-c5c(C)c(F)cc6[nH]ncc56)c(C5CC5)cc5c(N6C[C@@H]7C[C@H]6CN7)nc(O[C@H]6C[C@H](OC)C6)nc45)cc3)nn2)c2c1CC2 [Example 160, (2S,4R)-1-((2S)-2-(4-(4-(((4-((1S,4S)-2,5-diazabicyclo[2.2.1]heptan-2-yl)-6-cyclopropyl-7-(6-fluoro-5-methyl-1H-indazol-4-yl)-2-((1r,3S)-3-methoxycyclobutoxy)quinazolin-8-yl)oxy)methyl)phenyl)-1H-1,2,3-triazol-1-yl)-3-methylbutanoyl)-N—((R)-1-(5-(1-ethyl-1H-pyrazol-5-yl)bicyclo[4.2.0]octa-1(6),2,4-trien-2-yl)-2-hydroxyethyl)-4-hydroxypyrrolidine-2-carboxamide] | < 10 nM | < 10 nM | –
5 | CCn1nccc1-c1ccc([C@H](CO)NC(=O)[C@@H]2C[C@@H](O)CN2C(=O)[C@H](C(C)C)n2cc(-c3ccc(COc4c(-c5c(C)c(F)cc6[nH]ncc56)c(C5CC5)cc5c(N6CC7CCC(C6)N7)nc(OC[C@H](C)OC)nc45)cc3)nn2)cc1 (single isomer, unassigned) [Example 9] | – | 10 to 100 nM | > 1000 nM
6 | CCn1nccc1-c1ccc([C@H](CO)NC(=O)[C@@H]2C[C@@H](O)CN2C(=O)[C@H](C(C)C)n2cc(-c3ccc(COc4c(-c5c(C)c(F)cc6[nH]ncc56)c(C5CC5)cc5c(N(C)[C@@H]6CCNC6)nc(O[C@H]6C[C@H](OC)C6)nc45)cc3)nn2)c2c1CC2 [Example 204, (2S,4R)-1-((2S)-2-(4-(4-(((6-cyclopropyl-7-(6-fluoro-5-methyl-1H-indazol-4-yl)-2-((1r,3R)-3-methoxycyclobutoxy)-4-(methyl((R)-pyrrolidin-3-yl)amino)quinazolin-8-yl)oxy)methyl)phenyl)-1H-1,2,3-triazol-1-yl)-3-methylbutanoyl)-N—((R)-1-(5-(1-ethyl-1H-pyrazol-5-yl)bicyclo[4.2.0]octa-1(6),2,4-trien-2-yl)-2-hydroxyethyl)-4-hydroxypyrrolidine-2-carboxamide] | < 10 nM | < 10 nM | –

More lines, now with the values ahead:

Row | IC50 (AsPC-1 cells; Homo sapiens, ASPC1, 144 h) | DC50 (KRAS (G12D)) | IC50 (AsPC-1 cells) | SMILES
7 | < 10 nM | < 10 nM | – | CCn1nccc1-c1ccc([C@@H](NC(=O)[C@@H]2C[C@@H](O)CN2C(=O)[C@H](C(C)C)n2cc(-c3ccc(COc4c(-c5c(C)c(F)cc6[nH]ncc56)c(C5CC5)cc5c(N(C)[C@@H]6CCNC6)nc(OC[C@H](C)OC)nc45)cc3)nn2)[C@H](C)O)c2c1CC2 [Example 186, (2S,4R)-1-((2S)-2-(4-(4-(((6-cyclopropyl-7-(6-fluoro-5-methyl-1H-indazol-4-yl)-2-((S)-2-methoxypropoxy)-4-(methyl((R)-pyrrolidin-3-yl)amino)quinazolin-8-yl)oxy)methyl)phenyl)-1H-1,2,3-triazol-1-yl)-3-methylbutanoyl)-N-((1R,2S)-1-(5-(1-ethyl-1H-pyrazol-5-yl)bicyclo[4.2.0]octa-1(6),2,4-trien-2-yl)-2-hydroxypropyl)-4-hydroxypyrrolidine-2-carboxamide]
8 | 10 to 100 nM | 10 to 100 nM | – | CCn1nccc1-c1ccc([C@H](CO)NC(=O)[C@@H]2C[C@@H](O)CN2C(=O)[C@H](C(C)C)n2cc(-c3ccc(COc4c(-c5c(C)c(F)cc6[nH]ncc56)c(C5CC5)cc5c(N6CC7CCC(C6)N7)nc(OC[C@H](C)OC)nc45)cc3)nn2)cc1 (single isomer, unassigned) [Example 13A]
9 | – | > 1000 nM | > 1000 nM | CO[C@@H](C)COc1nc(N(C)[C@H]2CCNC2)c2cc(C3CC3)c(-c3c(C)c(F)cc4[nH]ncc34)c(OCc3ccc(-c4cn([C@H](C(=O)N5C[C@H](O)C[C@H]5C(=O)N[C@H](c5ccc(-c6scnc6C)cc5)[C@H](C)O)C(C)C)nn4)cc3)c2n1 [Example 144, (2S,4R)-1-((2S)-2-(4-(4-(((6-cyclopropyl-7-(6-fluoro-5-methyl-1H-indazol-4-yl)-2-((S)-2-methoxypropoxy)-4-(methyl((S)-pyrrolidin-3-yl)amino)quinazolin-8-yl)oxy)methyl)phenyl)-1H-1,2,3-triazol-1-yl)-3-methylbutanoyl)-4-hydroxy-N-((1R,2S)-2-hydroxy-1-(4-(4-methylthiazol-5-yl)phenyl)propyl)pyrrolidine-2-carboxamide]
10 | < 10 nM | < 10 nM | – | Cc1ncsc1-c1ccc([C@@H](NC(=O)[C@@H]2C[C@@H](O)CN2C(=O)[C@H](C(C)C)n2cc(-c3ccc(COc4c(-c5c(C)c(F)cc6[nH]ncc56)c(C5CC5)cc5c(N6C[C@@H]7C[C@H]6CN7)nc(OC6CCOCC6)nc45)cc3)nn2)[C@@H](O)C2CC2)cc1 [Example 138, (2S,4R)-1-((2S)-2-(4-(4-(((4-((1S,4S)-2,5-diazabicyclo[2.2.1]heptan-2-yl)-6-cyclopropyl-7-(6-fluoro-5-methyl-1H-indazol-4-yl)-2-((tetrahydro-2H-pyran-4-yl)oxy)quinazolin-8-yl)oxy)methyl)phenyl)-1H-1,2,3-triazol-1-yl)-3-methylbutanoyl)-N-((1R,2S)-2-cyclopropyl-2-hydroxy-1-(4-(4-methylthiazol-5-yl)phenyl)ethyl)-4-hydroxypyrrolidine-2-carboxamide]
11 | < 10 nM | < 10 nM | – | Cc1ncsc1-c1ccc([C@@H](NC(=O)[C@@H]2C[C@@H](O)CN2C(=O)[C@H](C(C)C)n2cc(-c3ccc(COc4c(-c5c(C)c(F)cc6[nH]ncc56)c(C5CC5)cc5c(N6C[C@@H]7C[C@H]6CN7)nc(OC6CC7(COC7)C6)nc45)cc3)nn2)[C@@H](C)O)cc1 [Example 150, (2S,4R)-1-((2S)-2-(4-(4-(((2-((2-oxaspiro[3.3]heptan-6-yl)oxy)-4-((1S,4S)-2,5-diazabicyclo[2.2.1]heptan-2-yl)-6-cyclopropyl-7-(6-fluoro-5-methyl-1H-indazol-4-yl)quinazolin-8-yl)oxy)methyl)phenyl)-1H-1,2,3-triazol-1-yl)-3-methylbutanoyl)-4-hydroxy-N-((1R,2R)-2-hydroxy-1-(4-(4-methylthiazol-5-yl)phenyl)propyl)pyrrolidine-2-carboxamide]
12 | < 10 nM | < 10 nM | – | CCn1nccc1-c1ccc([C@H](CO)NC(=O)[C@@H]2C[C@@H](O)CN2C(=O)[C@H](C(C)C)n2cc(-c3ccc(COc4c(-c5c(C)c(F)cc6[nH]ncc56)c(C5CC5)cc5c(N6C[C@@H]7C[C@H]6CN7)nc(OC6CC7COCC7C6)nc45)cc3)nn2)cc1 (stereo partly drawn) [Example 104, (2S,4R)-1-((2S)-2-(4-(4-(((4-((1S,4S)-2,5-diazabicyclo[2.2.1]heptan-2-yl)-6-cyclopropyl-7-(6-fluoro-5-methyl-1H-indazol-4-yl)-2-((hexahydro-1H-cyclopenta[c]furan-5-yl)oxy)quinazolin-8-yl)oxy)methyl)phenyl)-1H-1,2,3-triazol-1-yl)-3-methylbutanoyl)-N—((R)-1-(4-(1-ethyl-1H-pyrazol-5-yl)phenyl)-2-hydroxyethyl)-4-hydroxypyrrolidine-2-carboxamide]
13 | – | < 10 nM | 10 to 100 nM | CCn1nccc1-c1ccc([C@H](C)NC(=O)[C@@H]2C[C@@H](O)CN2C(=O)[C@H](C(C)C)n2cc(-c3ccc(COc4c(-c5c(C)c(F)cc6[nH]ncc56)c(C5CC5)cc5c(N6C[C@H]7C[C@@H]6CN7)nc(OC[C@H](C)OC)nc45)cc3)nn2)cc1 (single isomer, unassigned) [Example 4A]
